Source: patent publication US11447486B2, “2-amino-benzimidazole derivatives and their use as 5-lipoxygenase and/or prostaglandin E synthase inhibitors” (INSTITUT PASTEUR KOREA, priority 2014, dated 2022)

Assays:
human 5-LOX = molecular target: T1, human 5-LOX (Homo sapiens, UniProt P09917); assay: 5-LOX enzyme activity, fluorescence method (5-HPETE, H2DCFDA); assay type: biochemical; conditions: read-out: 5-LO (IC50)
T1 construct: purchased Cayman 60402; host or cells: insect cells (lysate)
T1 sequence (P09917 1-674): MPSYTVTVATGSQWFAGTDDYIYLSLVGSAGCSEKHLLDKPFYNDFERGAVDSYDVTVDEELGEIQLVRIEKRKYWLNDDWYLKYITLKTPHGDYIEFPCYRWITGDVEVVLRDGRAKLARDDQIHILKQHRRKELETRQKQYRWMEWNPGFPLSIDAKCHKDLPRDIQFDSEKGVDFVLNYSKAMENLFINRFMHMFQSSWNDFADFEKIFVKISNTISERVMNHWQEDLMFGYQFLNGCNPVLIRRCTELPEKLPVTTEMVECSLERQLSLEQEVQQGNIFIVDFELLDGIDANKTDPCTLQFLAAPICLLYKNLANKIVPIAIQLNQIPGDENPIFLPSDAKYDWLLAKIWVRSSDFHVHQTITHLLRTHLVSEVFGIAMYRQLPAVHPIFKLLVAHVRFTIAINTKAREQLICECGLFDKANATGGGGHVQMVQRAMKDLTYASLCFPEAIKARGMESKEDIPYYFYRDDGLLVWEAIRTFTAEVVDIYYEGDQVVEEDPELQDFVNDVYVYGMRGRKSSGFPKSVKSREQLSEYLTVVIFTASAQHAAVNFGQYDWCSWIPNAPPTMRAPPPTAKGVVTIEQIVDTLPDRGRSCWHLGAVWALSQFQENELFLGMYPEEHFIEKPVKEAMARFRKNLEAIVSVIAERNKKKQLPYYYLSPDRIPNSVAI
Procedure, shortened: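 Fluorescence-based read-out, run entirely at room temperature. Enzyme mixture was exposed to a dose range of compound from 0.5 nM to 10 uM for 5 min before ATP and arachidonic acid were added to final levels of 100 uM and 3 uM.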

[1] = system: Rat basophilic leukemia (RBL) cells; assay: LTB4 secretion assay in RBL (rat basophilic leukemia cells); assay type: cell-based; conditions: Rattus norvegicus, RBL
Procedure, shortened: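 LTB4 released into supernatant was measured by EIA after 10 min at 37 °C with arachidonic acid (2.5 uM final) and calcium ionophore A23187 (5 uM final). Before stimulation, cells plated 2×10^4/well overnight received compound doses (5 nM to 100 uM) for 15 min in 0.5% FBS medium.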

SMILES | IC50 (human 5-LOX) [µM] | EC50 [1] [µM]
Nc1ccc2c(c1)nc(-n1cc(F)cn1)n2CCOc1ccc(OC(F)(F)F)cc1 [Compound 82] | > 10 | 10 to 20
Nc1ccc2nc(NCc3ccc4cccnc4c3)[nH]c2c1 [Compound 159] | < 1 | > 20
Fc1ccc(CNc2nc3cc(NCc4cnc[nH]4)ccc3[nH]2)cc1 [Compound 29] | < 1 | < 10
Nc1ccc2nc(NCc3coc(Cc4ccc(Cl)cc4)n3)[nH]c2c1 [Compound 186] | < 1 | < 10
Nc1ccc2nc(N3CCC(F)(F)C3)n(CCOc3ccc(OC(F)(F)F)cc3)c2c1 [Compound 100] | < 1 | < 10
CC(C)(O)Cn1c(NCc2ccc(Oc3ccc(Cl)cc3)cc2)nc2ccc(N)cc21 [Compound 209] | < 1 | < 10
CCOC(=O)CNc1nc2ccc(N)cc2n1Cc1ccc(Oc2ccc(Cl)cc2)cc1 [Compound 207] | < 1 | < 10
CN(C)c1nc2ccc(N)cc2n1CCOc1ccc(Cl)cc1 [Compound 39] | < 1 | 10 to 20
CC(C)(O)Cn1c(NCc2ccc(Oc3ccc(Cl)cn3)cc2)nc2ccc(NC3COC3)cc21 [Compound 208] | < 1 | < 10
CN(C)c1nc2cc(N3CCC(c4nc5ccc(Cl)cc5o4)C3)ccc2[nH]1 (stereo not drawn) [Compound 236] | < 1 | < 10
COC(=O)c1ccc(CNc2ccc3nc(N(C)C)[nH]c3c2)cc1 [Compound 179] | < 1 | < 10
Nc1ccc2nc(-n3cc(F)cn3)n(CCOc3ccc(OC(F)(F)F)cc3)c2c1 [Compound 78] | > 10 | 10 to 20
Cn1nccc1-c1ccc(CNc2nc3cc(NC4COC4)ccc3[nH]2)cc1 [Compound 201] | < 1 | > 20
Nc1ccc2nc(NCC(Oc3ccc(Cl)cc3)c3ccccc3)[nH]c2c1 (stereo not drawn) [Compound 169] | < 1 | < 10
CN(C)c1nc2ccc(NCc3ccc(N(Cc4ncco4)c4ccc(F)cc4)cc3)cc2[nH]1 [Compound 213] | < 1 | < 10
c1ccc(Oc2ccc(CNc3nc4cc(NC5CCC5)ccc4[nH]3)cc2)cc1 [Compound 96] | < 1 | < 10
CC(Cc1ccc(Cl)cc1Cl)Nc1nc2ccc(N)cc2n1Cc1ccccc1 (stereo not drawn) [Compound 140] | < 1 | < 10
CN(C)c1nc2ccc(NC3COC3)cc2n1CCOc1ccc(Cl)cc1 [Compound 40] | < 1 | 10 to 20
Cn1c(NCc2ccc(Oc3ccc(Cl)cn3)cc2Cl)nc2ccc(N)cc21 [Compound 285] | < 1 | < 10

SMILES | IC50 (human 5-LOX) [µM] | EC50 [1] [µM]
OCC(O)CNc1ccc2nc(NCc3ccc(Oc4ccc(Cl)cc4)cc3)[nH]c2c1 (stereo not drawn) [Compound 215] | < 1 | < 10
Cn1c(NCc2ccc(Oc3ccc(Cl)cn3)cc2F)nc2ccc(N)cc21 [Compound 272] | < 1 | < 10
CN(C)c1nc2ccc(NCc3ccc(C4(C(N)=O)CCOCC4)cc3)cc2[nH]1 [Compound 237] | < 1 | > 20
CC(C)(C(O)c1ccc(CNc2nc3ccc(N)cc3[nH]2)cc1)C(F)(F)F (stereo not drawn) [Compound 198] | < 1 | 10 to 20
Cn1ccnc1C(=O)c1ccc(CNc2nc3ccc(N)cc3[nH]2)cc1 [Compound 173] | < 1 | > 20
Cn1c(NCc2ccc(Oc3ccc(Cl)cc3)nc2)nc2ccc(N)cc21 [Compound 287] | < 1 | < 10
Nc1ccc2nc(N)n(CCc3ccc(Oc4ccc(Cl)cn4)cc3)c2c1 [Compound 244] | < 1 | < 10
CN(C)CCn1c(NCc2ccc(Oc3ccc(Cl)cn3)cc2)nc2ccc(N)cc21 [Compound 286] | < 1 | < 10
Cn1c(NCc2ccc(Oc3ccc(Cl)cn3)cc2)nc2ccc(N)cc21 [Compound 210] | < 1 | < 10
CC(CC(F)(F)F)Nc1ccc2[nH]c(NCc3ccc(Oc4ccc(Cl)cc4)cc3)nc2c1 (stereo not drawn) [Compound 134] | < 1 | < 10
FC(F)(F)Oc1ccc(OC2CCN(c3ccc4nc(NCCCN5CCOCC5)[nH]c4c3)C2)cc1 (stereo not drawn) [Compound 142] | < 1 | 10 to 20
Cn1c(NCc2ccc(C(=O)Nc3ccc(Cl)cn3)cc2)nc2ccc(N)cc21 [Compound 310] | < 1 | > 20
Nc1ccc2nc(NCc3ccc(C(=O)c4ccccn4)cc3)[nH]c2c1 [Compound 141] | < 1 | > 20
Nc1ccc2nc(NCc3ccc(Oc4ccc(Cl)cn4)cc3)n(CCO)c2c1 [Compound 259] | < 1 | < 10
Cn1c(NCc2ccc(COc3ccc(Cl)cn3)cc2)nc2ccc(N)cc21 [Compound 304] | < 1 | < 10
CC(C)(CO)Nc1ccc2[nH]c(NCc3ccc(Cl)cc3F)nc2c1 [Compound 31] | < 1 | > 20
Cc1cc(CNc2nc3ccc(NC4COC4)cc3n2C)ccc1Oc1ccc(Cl)cn1 [Compound 283] | < 1 | < 10
Cc1cc(CNc2nc3ccc(N)cc3n2C)ccc1Oc1ccc(Cl)cn1 [Compound 282] | < 1 | < 10

More lines, now with the values ahead:

IC50 (human 5-LOX) [µM] | EC50 [1] [µM] | SMILES
< 1 | < 10 | Cn1c(NCc2ccc(Oc3ccnc4cc(Cl)ccc34)cc2)nc2ccc(NC3COC3)cc21 [Compound 384]
< 1 | 10 to 20 | Cn1c(NCc2ccc(Oc3ccnc4c(Cl)cccc34)cc2)nc2ccc(NC3COC3)cc21 [Compound 388]
< 1 | < 10 | Cn1c(NCc2ccc(Oc3ncc4c(Cl)cccc4n3)cc2)nc2ccc(NC3COC3)cc21 [Compound 435]
< 1 | < 10 | Cn1c(NCc2ccc(Oc3ncc4cc(Cl)ccc4n3)cc2)nc2ccc(N)cc21 [Compound 405]
< 1 | 10 to 20 | Cn1c(NCc2ccc(Oc3nc4ccccc4n3C)cc2)nc2ccc(N)cc21 [Compound 356]
< 1 | > 20 | CN(C)C(=O)c1cnc(Oc2ccc(CNc3nc4ccc(N)cc4n3C)cc2)nc1 [Compound 456]
< 1 | < 10 | Cn1c(NCc2ccc(Oc3cnc4cc(Cl)ccc4n3)cc2)nc2ccc(NC3COC3)cc21 [Compound 427]
< 1 | 10 to 20 | COc1nc(Oc2ccc(CNc3nc4ccc(N)cc4n3C)cc2)ncc1Cl [Compound 454]
< 1 | < 10 | Cn1c(NCc2ccc(Oc3ncc4cccc(Cl)c4n3)cc2)nc2ccc(N)cc21 [Compound 436]
< 1 | < 10 | Cn1c(NCc2ccc(Oc3ncc4cc(Cl)ccc4n3)cc2)nc2ccc(NC3COC3)cc21 [Compound 406]
< 1 | < 10 | Cc1cc(Oc2ccc(Cl)cn2)cc(C)c1CNc1nc2ccc(NC3COC3)cc2n1C [Compound 335]
< 1 | < 10 | Cn1c(NCc2ccc(-n3ccc4cc(Cl)cnc43)cc2)nc2ccc(N)cc21 [Compound 445]
< 1 | < 10 | Cn1c(NCc2ccc(Oc3cn4ccc(Cl)cc4n3)cc2)nc2ccc(N)cc21 [Compound 442]
< 1 | < 10 | Cn1c(NCc2ccc(Oc3ccc(Cl)cn3)cc2)nc2ccc(NC3CNC3)cc21 [Compound 401]
< 1 | > 20 | CNC(=O)c1cnc(Oc2ccc(CNc3nc4ccc(N)cc4n3C)cc2)nc1 [Compound 462]
< 1 | < 10 | Cc1cc(Nc2ccc3nc(NC4(c5ccc(Oc6ncc(Cl)cn6)cc5)CC4)n(C)c3c2)n[nH]1 [Compound 478]
< 1 | < 10 | Cn1c(NCc2ccc(Oc3ncc(Cl)cn3)cc2)nc2ccc(NCc3ncccn3)cc21 [Compound 365]
< 1 | > 20 | Cn1c(NCc2ccc(Oc3ccc(Cl)cn3)cc2)nc2ccc(NC3CN(C(N)=O)C3)cc21 [Compound 404]
< 1 | < 10 | Cn1c(NCc2ccc(Oc3ccc4cc(Cl)ccc4n3)cc2)nc2ccc(NC3COC3)cc21 [Compound 390]
< 1 | > 20 | Cn1c(NCc2ccc(Oc3ncc(Cl)cn3)cc2)nc2ccc(NC3CN(C(N)=O)C3)cc21 [Compound 408]
< 1 | < 10 | CCC(Nc1nc2ccc(N)cc2n1C)c1ccc(Oc2ncc(Cl)cn2)cc1 (stereo not drawn) [Compound 452]
< 1 | < 10 | Cn1c(NCc2ccc(Oc3ccccn3)cc2)nc2ccc(N)cc21 [Compound 346]
< 1 | < 10 | CN(c1ccc(CNc2nc3ccc(N)cc3n2C)cc1)c1ncc(Cl)cn1 [Compound 463]
